From patent US20240116928A1 (Gilead Sciences, Inc., priority 2022, published 2024) come the findings set out here.

For assay [1], the target named is T1, CD73 (Homo sapiens, UniProt P21589).
T1 sequence (P21589 27-549): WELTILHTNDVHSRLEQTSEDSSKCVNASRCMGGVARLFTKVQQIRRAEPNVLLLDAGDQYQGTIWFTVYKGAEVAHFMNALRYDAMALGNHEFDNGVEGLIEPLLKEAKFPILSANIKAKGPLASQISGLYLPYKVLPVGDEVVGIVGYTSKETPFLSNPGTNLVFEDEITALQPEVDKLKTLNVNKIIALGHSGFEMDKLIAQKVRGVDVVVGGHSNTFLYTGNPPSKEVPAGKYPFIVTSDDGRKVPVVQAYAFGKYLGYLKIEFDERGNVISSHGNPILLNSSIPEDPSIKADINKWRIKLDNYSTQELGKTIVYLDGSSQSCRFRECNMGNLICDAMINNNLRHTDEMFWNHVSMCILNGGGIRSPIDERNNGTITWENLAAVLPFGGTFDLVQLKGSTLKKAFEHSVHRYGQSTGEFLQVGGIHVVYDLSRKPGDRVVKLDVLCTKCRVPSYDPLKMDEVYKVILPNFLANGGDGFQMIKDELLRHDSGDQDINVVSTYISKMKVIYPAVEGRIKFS
Nature of the assay: MDA-MB-231 Cell Based CD73 Activity Assay (DMEM). The conditions noted are these: MDA-MB-231-GFP cells, DMEM with 10% human plasma, overnight compound treatment, 200 uM AMP, 100 mins. Further details: endogenous in cells; host or cells: MDA-MB-231-GFP. The protocol: Cells were plated into assay plate with compounds pre-spotted, for an overnight compound treatment. 50 uL of 400 uM AMP (final concentration will be 200 uM) was added using Bio-tek dispenser. Plates were incubated for 100 mins. 20 uL of supernatant was transferred into 384-well NUNC plate pre-filled with 60 ul Quench buffer (80% organic and 20% water+0.1% FA) with internal standard. The plates were spun down at 4500 rpm for 20 mins, then 20 ul of supernatant was transferred to another Nunc plate prefilled with 80 ul of water. The samples were analyzed using Rapid fire.

The target of assay [2] is T1, CD73. The assay is described as follows: CD73 Biochemical IC50 Assay. The conditions noted are these: CD73 enzyme (R&D system) final 0.3 nM, final AMP 15 uM, 60 mins incubation, Rapid fire. How it is done: CD73 Biochemical IC50 Assay
Compound serial dilutions were pre-spotted into Thermo Nunc assay plate. 50 μL CD73 enzyme buffer (CD73 purchased from R&D system=0.6 nM, 25 mM Tris, pH 7.4, 5 mM MgCl2, 1 mM NaH2PO4) was added into the assay plate and incubated for 15 mins. […] After incubation for 60 mins, the supernatant 20 uL was transferred into 384-well NUNC plate pre-filled with 60 ul Quench buffer (80% organic and 20% water+0.1% FA) with internal standard. The plate was spun down at 4500 rpm for 20 mins, then 20 μl of supernatant was transferred to another Nunc plate prefilled with 80 μl of water. The samples were run using Rapid fire.

Usually EC50 stands for the concentration needed to bring the measured effect to its halfway point. The term IC50 denotes the concentration that gives 50% inhibition.

Turning to `CCc1nc(-c2c[nH]c(=O)[nH]c2=O)cc(N2C[C@H](Oc3cc4c(cn3)cnn4CC(F)(F)F)C(F)(F)C2)n1` [Example 1, (S)-6-(3,3-difluoro-4-((1-(2,2,2-trifluoroethyl)-1H-pyrazolo[4,3-c]pyridin-6-yl)oxy)pyrrolidin-1-yl)-2-ethyl-[4,5′-bipyrimidine]-2′,4′ (1′H,3′H)-dione], the half-maximal effective concentration (EC50) at CD73 [1] was 33.7 nM. At CD73 [2], this compound registered an IC50 of 12.7 nM.
Take `O=c1[nH]cc(-c2cc(N3C[C@H](Oc4cc5c(cn4)cnn5CC(F)(F)F)C(F)(F)C3)nc(C3CC3)n2)c(=O)[nH]1` [Example 3, (S)-2-cyclopropyl-6-(3,3-difluoro-4-((1-(2,2,2-trifluoroethyl)-1H-pyrazolo[4,3-c]pyridin-6-yl)oxy)pyrrolidin-1-yl)-[4,5′-bipyrimidine]-2′,4′ (1′H,3′H)-dione]: the EC50 on CD73 [1] is greater than 50 nM. Moreover, the IC50 at CD73 [2] amounted to 25.7 nM.
At CD73 [1], `O=c1[nH]cc(-c2cc(N3C[C@H](Oc4cc5c(cn4)cnn5CC(F)(F)F)C(F)(F)C3)nc(C(F)(F)F)n2)c(=O)[nH]1` [Example 6, (S)-6-(3,3-difluoro-4-((1-(2,2,2-trifluoroethyl)-1H-pyrazolo[4,3-c]pyridin-6-yl)oxy)pyrrolidin-1-yl)-2-(trifluoromethyl)-[4,5′-bipyrimidine]-2′,4′ (1′H,3′H)-dione] had an EC50 of 35.7 nM. On CD73 [2], half-maximal inhibition (IC50) was put at 7.14 nM.
For `Cc1nc(-c2c[nH]c(=O)[nH]c2=O)cc(N2C[C@H](Oc3ccnc(C4(C(F)(F)F)CC4)c3)C(F)(F)C2)n1` [Example 7, (S)-6-(3,3-difluoro-4-((2-(1-(trifluoromethyl)cyclopropyl)pyridin-4-yl)oxy)pyrrolidin-1-yl)-2-methyl-[4,5′-bipyrimidine]-2′,4′ (1′H,3′H)-dione] the same measures were 1.07 nM and 4.28 nM.
For `Cc1cc(N2C[C@H](Oc3cc4c(cn3)cnn4CC(F)(F)F)C(F)(F)C2)cc(-c2c[nH]c(=O)[nH]c2=O)n1` [Example 10, (S)-5-(4-(3,3-difluoro-4-((1-(2,2,2-trifluoroethyl)-1H-pyrazolo[4,3-c]pyridin-6-yl)oxy)pyrrolidin-1-yl)-6-methylpyridin-2-yl)pyrimidine-2,4(1H,3H)-dione] the same measures were 49 nM and 41 nM.
For `O=c1[nH]cc(-c2cc(N3C[C@H](Oc4cc5c(cn4)cnn5CC(F)(F)F)C(F)(F)C3)cc(C(F)(F)F)n2)c(=O)[nH]1` [Example 11, (S)-5-(4-(3,3-difluoro-4-((1-(2,2,2-trifluoroethyl)-1H-pyrazolo[4,3-c]pyridin-6-yl)oxy)pyrrolidin-1-yl)-6-(trifluoromethyl)pyridin-2-yl)pyrimidine-2,4(1H,3H)-dione] the same measures were 22.5 nM and 12.8 nM.
At CD73 [1], `COc1cc(N2C[C@H](Oc3cc4c(cn3)cnn4CC(F)(F)F)C(F)(F)C2)cc(-c2c[nH]c(=O)[nH]c2=O)n1` [Example 12, (S)-5-(4-(3,3-difluoro-4-((1-(2,2,2-trifluoroethyl)-1H-pyrazolo[4,3-c]pyridin-6-yl)oxy)pyrrolidin-1-yl)-6-methoxypyridin-2-yl)pyrimidine-2,4(1H,3H)-dione] showed an EC50 of 27.1 nM. The same compound showed an IC50 at CD73 [2] of 8.95 nM.
For `Cc1nc(-c2c[nH]c(=O)[nH]c2=O)cc(N2C[C@H](Oc3cc(C(F)(F)F)ccn3)C(F)(F)C2)n1` [Example 13, 5-[6-[(4S)-3,3-difluoro-4-[[4-(trifluoromethyl)-2-pyridyl]oxy]pyrrolidin-1-yl]-2-methyl-pyrimidin-4-yl]-1H-pyrimidine-2,4-dione] the same measures were greater than 50 nM and 31.3 nM.
For `Cc1nc(-c2c[nH]c(=O)[nH]c2=O)cc(N2C[C@H](Oc3cc(OC(F)F)ccn3)C(F)(F)C2)n1` [Example 14, (S)-6-(4-((4-(difluoromethoxy)pyridin-2-yl)oxy)-3,3-difluoropyrrolidin-1-yl)-2-methyl-[4,5′-bipyrimidine]-2′,4′ (1′H,3′H)-dione] the same measures were greater than 50 nM and 4.92 nM.
For `Cc1nc(-c2c[nH]c(=O)[nH]c2=O)cc(N2C[C@H](Oc3cc(C(F)F)c(F)cn3)C(F)(F)C2)n1` [Example 15, (S)-6-(4-((4-(difluoromethyl)-5-fluoropyridin-2-yl)oxy)-3,3-difluoropyrrolidin-1-yl)-2-methyl-[4,5′-bipyrimidine]-2′,4′ (1′H,3′H)-dione] the same measures were greater than 50 nM and 10.2 nM.
Take `Cc1nc(-c2c[nH]c(=O)[nH]c2=O)cc(N2C[C@H](Oc3ccc(F)c(C(F)F)c3)C(F)(F)C2)n1` [Example 16, (S)-6-(4-(3-(difluoromethyl)-4-fluorophenoxy)-3,3-difluoropyrrolidin-1-yl)-2-methyl-[4,5′-bipyrimidine]-2′,4′ (1′ H,3′ H)-dione]: the 50% effective concentration (EC50) at CD73 [1] was greater than 50 nM. At CD73 [2], the IC50 came to 6.28 nM.
In the same order, the values of `Cc1nc(-c2c[nH]c(=O)[nH]c2=O)cc(N2C[C@H](Oc3ccc(F)c(OC(F)F)c3)C(F)(F)C2)n1` [Example 17, (S)-6-(4-(3-(difluoromethoxy)-4-fluorophenoxy)-3,3-difluoropyrrolidin-1-yl)-2-methyl-[4,5′-bipyrimidine]-2′,4′ (1′H,3′H)-dione] are greater than 50 nM and 4.21 nM.
In the same order, the values of `Cc1nc(-c2c[nH]c(=O)[nH]c2=O)cc(N2C[C@H](Oc3ccnc(C(F)(F)F)c3)C(F)(F)C2)n1` [Example 18, (S)-6-(3,3-difluoro-4-((2-(trifluoromethyl)pyridin-4-yl)oxy)pyrrolidin-1-yl)-2-methyl-[4,5′-bipyrimidine]-2′,4′ (1′ H,3′ H)-dione] are 32.9 nM and 5.7 nM.
For `Cc1nc(-c2c[nH]c(=O)[nH]c2=O)cc(N2C[C@H](Oc3ccc4cnn(CC(F)(F)F)c4c3)C(F)(F)C2)n1` [Example 19, (S)-6-(3,3-difluoro-4-((1-(2,2,2-trifluoroethyl)-1H-indazol-6-yl)oxy)pyrrolidin-1-yl)-2-methyl-[4,5′-bipyrimidine]-2′,4′ (1′H,3′H)-dione] the same measures were 26 nM and 6.26 nM.
On to `Cc1nc(-c2c[nH]c(=O)[nH]c2=O)cc(N2C[C@H](Oc3ccncc3)C(F)(F)C2)n1` [Example 20, (S)-6-(3,3-difluoro-4-(pyridin-4-yloxy)pyrrolidin-1-yl)-2-methyl-[4,5′-bipyrimidine]-2′,4′ (1′H,3′H)-dione], for which the EC50 on CD73 [1] was greater than 50 nM. This compound also yielded an IC50 against CD73 [2] of 8.7 nM.
Regarding `Cc1nc(-c2c[nH]c(=O)[nH]c2=O)cc(N2C[C@H](Oc3ccnc(C(F)F)c3)C(F)(F)C2)n1` [Example 21, (S)-6-(4-((2-(difluoromethyl)pyridin-4-yl)oxy)-3,3-difluoropyrrolidin-1-yl)-2-methyl-[4,5′-bipyrimidine]-2′,4′ (1′ H,3′ H)-dione], on CD73 [1], a half-maximal effect (EC50) was put at 39.7 nM. On CD73 [2], this compound came in with an IC50 of 4.97 nM.
At CD73 [1], `Cc1nc(-c2c[nH]c(=O)[nH]c2=O)cc(N2C[C@H](Oc3cc4c(cnn4CC(F)(F)F)cc3F)C(F)(F)C2)n1` [Example 23, (S)-6-(3,3-difluoro-4-((5-fluoro-1-(2,2,2-trifluoroethyl)-1H-indazol-6-yl)oxy)pyrrolidin-1-yl)-2-methyl-[4,5′-bipyrimidine]-2′,4′ (1′H,3′H)-dione] returned an EC50 greater than 50 nM. This compound also yielded a concentration for half-maximal inhibition (IC50) against CD73 [2] of 14.4 nM.
For `Cc1cc(O[C@H]2CN(c3cc(-c4c[nH]c(=O)[nH]c4=O)nc(C)n3)CC2(F)F)ccn1` [Example 24, (S)-6-(3,3-difluoro-4-((2-methylpyridin-4-yl)oxy)pyrrolidin-1-yl)-2-methyl-[4,5′-bipyrimidine]-2′,4′ (1′H,3′H)-dione] the same measures were greater than 50 nM and 7.67 nM.
As for `Cc1nc(-c2c[nH]c(=O)[nH]c2=O)cc(N2C[C@H](Oc3cc(C4(C(F)(F)F)CC4)ccn3)C(F)(F)C2)n1` [Example 25, (S)-6-(3,3-difluoro-4-((4-(1-(trifluoromethyl)cyclopropyl)pyridin-2-yl)oxy)pyrrolidin-1-yl)-2-methyl-[4,5′-bipyrimidine]-2′,4′ (1′H,3′H)-dione], on CD73 [1], the EC50 came out at 5.31 nM. Further, the IC50 on CD73 [2] is 4 nM.
In the same order, the values of `Cc1nc(OCC(F)(F)COC(=O)NC(C)C)cc(-c2c[nH]c(=O)[nH]c2=O)n1` [Example 26] are greater than 50 nM and 7.06 nM.
